Data on 5 compounds can be found in patent US20230331652A1, “TRANS-CYCLOOCTENES WITH HIGH REACTIVITY AND FAVORABLE PHYSIOCHEMICAL PROPERTIES” (University of Delaware, priority 2020, published 2023).

Series [1] can be described thus: Storage stability of neat TCO. The series is classed as physicochemical. The note with it: neat versus stored in solution. The text has this: The diastereoselective additions of 2 with methyl α-lithioacetate or lithioacetonitrile provided a straightforward path to introduce handles for conjugation via amide bond or ether formation. The reaction of ketone 2 with lithium bis(trimethylsilyl)amide (LiHMDS)/methyl acetate produced ester 9 in 86% yield. Similarly, the combination of 2 with LiHMDS and acetonitrile produced nitrile 10 in 98% yield. Hydrolysis of 9 with trimethyltin hydroxide followed by DIC-mediated coupling with N-hydroxysuccinimide gave NHS ester 11 in 89% yield (FIG. 3B). Alternately, using LiOH gave 11 in 46% yield after DIC coupling. Through amide coupling, 11 gave the fluorescent TAMRA-conjugate 12 with favorable physiochemical properties, and 11 was also combined with hydrazine monohydrate to give hydrazide 13 with a potential handle for aldehyde conjugation. TCO 9 also was combined with LiAlH4 to provide diol 14 in 89% yield which was next used in a Williamson ether synthesis with NaH/propargyl bromide to give 96% yield of propargyl ether 15. […] Amine 16 was synthesized by LiAlH4 reduction of TCO nitrile 10 in 93% yield to introduce an acid reactive conjugation handle. […] In summary, ketone 2 can serve as a readily prepared, central intermediate for the diastereoselective preparation of a range of hydrophilic a-TCO conjugates.

For series [2] the following is noted: toward 20; no kinetic example for 4b in the patent, FIG. 4A footnotes cite earlier measurements in 100% H2O; cited from earlier work.
Series [3] is described as follows: Stopped-flow kinetics of the Diels-Alder reaction with tetrazine 20. It counts as physicochemical. The note with it: 4a, 10 μM tetrazine, 95:5 PBS/MeOH, 25° C., in s-1 (unit assumed).
Assay in series [4]: as above
The series is classed as physicochemical. Particulars: toward tetrazine 20, stopped flow, 25° C., 95:5 PBS:MeOH. As for the experimental part:
The kinetics for the reaction of a-TCO derivative 14 toward a 3,6-dipyridyl-s-tetrazinyl succinamic acid derivative 20 were measured by stopped flow kinetics at 25° C. in 95:5 PBS:MeOH (FIG. 4A).
Stopped-flow kinetics measurements were performed on a SX18MV-R stopped-flow spectrophotometer (Applied Photophysics Ltd.) with temperature control (25° C.).
The reaction between 5-ax-hydroxy-5-eq-(2-hydroxyethyl)-trans-cyclooctene 14 and 3,6-dipyridyl-s-tetrazine-mono-succinamic acid 20 was monitored by a SX18MV-R stopped-flow spectrophotometer (Applied Photophysics Ltd.) at 325 nm by measuring the exponential decay of tetrazine under pseudo-first order conditions. Solutions of 14 (0.98, 1.46, 1.95, and 2.63 mM in 9:1 PBS/MeOH) and tetrazine (0.1 mM in PBS) were mixed in the stopped-flow spectrophotometer in equal volumes resulting in final concentrations of 0.49 mM, 0.73 mM, 0.97 mM, and 1.31 mM of 14 and 0.05 mM of tetrazine in 95:5 PBS/MeOH. Three independent samples were prepared for each TCO concentration and measurements were taken in duplicate every 0.1 ms for 0.1 sat 25° C. The observed rates kobs for each run were determined by nonlinear regression analysis of the data points using Prism software (Version 8.00, GraphPad Software Inc). The average kobs values were plotted against the concentrations of 14 to obtain the bimolecular rate constant k2 from the slope of the plot.
The observed rates (kobs) of 5-ax-hydroxy-5-eq-(2-hydroxyethyl)-trans-cyclooctene 14 (10-30 equivalents) and 3,6-dipyridyl-s-tetrazine-mono-succinamic acid 20 were measured using stopped-flow kinetics. The final concentrations of 14 after injection were (A) 0.49 mM, (B) 0.73 mM, (C) 0.97 mM, and (D) 1.31 mM and the concentration of tetrazine was 0.05 mM in 95:5 PBS/MeOH at 25° C. Duplicate measurements were obtained for three independent samples for each concentration of 14.
The reaction between 5-ax-hydroxy-trans-cyclooctene 4a and 3,6-dipyridyl-s-tetrazine-mono-succinamic acid 20 was monitored by a SX18MV-R stopped-flow spectrophotometer (Applied Photophysics Ltd.) at 325 nm by measuring the exponential decay of tetrazine under pseudo-first order conditions. Solutions of 4a (100, 200, 300, and 400 μM in 9:1 PBS/MeOH) and tetrazine (20 μM in PBS) were mixed in the stopped-flow […] 95:5 PBS/MeOH. Three independent samples were prepared for each TCO concentration and measurements were taken in duplicate every 0.1 ms for 0.2 s at 25° C. The observed rates kobs for each run were determined by nonlinear regression analysis of the data points using Prism software (Version 8.00, GraphPad Software Inc). The average kobs values were plotted against the concentrations of 4a to obtain the bimolecular rate constant k2 from the slope of the plot.
The observed rates (kobs) of 5-ax-hydroxy-trans-cyclooctene 4a (5-20 equivalents) and 3,6-dipyridyl-s-tetrazine-mono-succinamic acid 20 were measured using stopped-flow kinetics. […]

For series [5] the following is noted: 4a with a PEGylated amide of 20 in 100% H2O, previously measured (Darko et al.); cited from earlier work.
Series [6] is described as follows: Stability in methanol-d4 (35 mM) by quantitative 1H NMR. It counts as physicochemical. Particulars: 35 mM in methanol-d4, after 7 days. As for the experimental part: A solution of 14 (4.5 mg, 26 μmol) in methanol-d4 (750 μL) was monitored by quantitative ^1H NMR on a 600 MHz instrument to observe the decomposition of the trans-isomer over time. Methyl tert-butyl ether (3.1 μL, 26 μmol) was used as an internal standard. […] The results were plotted using Prism software (Version 8.00, GraphPad Software Inc). A waterfall plot of the ^1H NMR spectra is provided.
A solution of 4a (3.3 mg, 26 μmol) in methanol-d4 (750 μL) was monitored by quantitative ^1H NMR on a 600 MHz instrument to observe the decomposition of the trans-isomer over time. Methyl tert-butyl ether (3.1 μL, 26 μmol) was used as an internal standard. […] The results were plotted using Prism software (Version 8.00, GraphPad Software Inc). A waterfall plot of the ^1H NMR spectra is provided.

Series [7] can be described thus: Stability in phosphate buffered D2O, pD=7.4 (33 mM) by quantitative 1H NMR. The series is classed as physicochemical. As for the experimental part: (§1) Phosphate buffered D2O (pD=7.4) was prepared by combining anhydrous sodium dihydrogen phosphate (NaH2PO4, 77.1 mg) and anhydrous disodium hydrogen phosphate (Na2HPO4, 204.4 mg) with 20 mL of D2O to make a 0.1 M solution. The pD was measured on a Fisher Scientific AB15 Plus pH meter and pH values were converted to pD by adding 0.4 units. The pD was adjusted to 7.4 with DCI (35 wt. % in D2O) and NaOD (40 wt. % in D2O) as necessary.
A solution of 14 (4.3 mg, 25 μmol) in phosphate buffered D2O (750 μL, pD=7.4) was monitored by quantitative ^1H NMR on a 600 MHz instrument to observe the decomposition of the trans-isomer over time. Methyl tert-butyl ether (3.0 μL, 26 μmol) was used as an internal standard. After 1 day, 90% of 14 remained and after 5 days, 39% remained (FIG. 6B). The results were plotted using Prism software (Version 8.00, GraphPad Software Inc). A waterfall plot of the ^1H NMR spectra is provided.
A solution of 4a (3.2 mg, 25 μmol) in phosphate buffered D2O (750 μL, pD=7.4) was monitored by quantitative ^1H NMR on a 600 MHz instrument to observe the decomposition of the trans-isomer over time. Methyl tert-butyl ether (3.0 μL, 26 μmol) was used as an internal standard. After 1 day, 85% of 4a remained and after 5 days, 35% remained (FIG. 6B). The results were plotted using Prism software (Version 8.00, GraphPad Software Inc). A waterfall plot of the ^1H NMR spectra is provided.

Series [8] can be described thus: Stability with mercaptoethanol (25 mM) in phosphate buffered D2O, pD=7.4. The note with it: 25 mM mercaptoethanol. The series is classed as physicochemical. As for the experimental part:
as §1
TCO 14 (3.1 mg, 18 μmol) in a solution of mercaptoethanol in phosphate buffered D2O (720 μL, 18 μmol, 25 mM, pD=7.4) was monitored by quantitative 1H NMR on a 600 MHz instrument to observe the decomposition of the trans-isomer over time. Methyl tert-butyl ether (2.1 μL, 18 μmol) was used as an internal standard. After 4 hours, 93% of 14 remained and 49% of 14 remained after 20 hours. (FIG. 6C). The results were plotted using Prism software (Version 8.00, GraphPad Software Inc). A waterfall plot of the ^1H NMR spectra is provided.
TCO 4a (2.3 mg, 18 μmol) in a solution of mercaptoethanol in phosphate buffered D2O (720 μL, 18 μmol, 25 mM, pD=7.4) was monitored by quantitative 1H NMR on a 600 MHz instrument to observe the decomposition of the trans-isomer over time. Methyl tert-butyl ether (2.1 μL, 18 μmol) was used as an internal standard. After 4 hours, 89% of 4a and 49% of 4a remained after 20 hours. (FIG. 6C). The results were plotted using Prism software (Version 8.00, GraphPad Software Inc). A waterfall plot of the ^1H NMR spectra is provided.

The subject of series [9] is cellular protein sulfenic acids. The note with it: generally; not under the conditions of intracellular bioorthogonal chemistry (generally ≤10 μM); cited from earlier work.

SMILES strings stand for the structures. Where only a bound is given, the exact number is not on record here.

As for `C=CCC1(O)CC/C=C/CCC1` (stereo not drawn) [Compound 6, 5-eq-Allyl-5-ax-hydroxy-trans-cyclooctene], in series [1], the storage stability result was “polymerize if not stored in solution”.
On the same count and under the same terms, the same measure for `C#CCOCC[C@]1(O)CC/C=C/CCC1` [Compound 15, 5-ax-Hydroxy-5-eq-(2-(prop-2-yn-1-yloxy)ethyl)-trans-cyclooctene]: “more stable alternative”.
With `OC1CC/C=C/CCC1` (stereo not drawn) [Compound 4b, equatorial-5-hydroxy-trans-cyclooctene], in series [2], the “second-order rate constant k2 (equatorial isomer, comparison value)” value is on record as 22,400±40 M^−1s^−1.
As to `OC1CC/C=C/CCC1` (stereo not drawn) [Compound 4a, 5-ax-Hydroxy-trans-cyclooctene], the Kobs stood at 3.407 in [3] (Table 2 head A (0.49 mM)), 6.966 in series [3] (Table 2 head B (0.73 mM)), 10.09 in series [3] (Table 2 head C (0.97 mM)) and 13.86 in series [3] (Table 2 head D (1.31 mM)). The “second-order rate constant k2” value in series [4] was 70,000±1800 M^−1s^−1. Further, in series [5], the k2 is 80,200. In addition, the “decomposition of the trans-isomer” value in series [6] is given as “no observable decomposition”. The TCO remaining in series [7] (phosphate buffered D2O pD 7.4, 1 day (24 h), room temperature) is recorded as 85%; in series [7] (phosphate buffered D2O pD 7.4, 5 days), 35%; in series [8] (phosphate buffered D2O pD 7.4, 4 hours), 89%; in [8] (phosphate buffered D2O pD 7.4, 20 hours), 49%.
Consider `C#CCC1(O)CC/C=C/CCC1` (stereo not drawn) [Compound 5, 5-ax-Hydroxy-5-eq-propargyl-trans-cyclooctene], for which, in series [9], the “TCO concentration at which sulfenic acids are modified” value is ≥ 500 µM.
